Seven molecules from patent publication US9969742B2, “Imidazotriazinone compounds” (Ironwood Pharmaceuticals, Inc., priority 2012, dated 2018) can be followed below.

Common to all, as to assay type: biochemical
The target of test [1] is T1, PDE9A2 (Homo sapiens, UniProt O76083).
T1 construct: purchased Reaction Biology Corporation, Malvern, Pa
The test can be described thus: Phosphodiesterase enzyme screening assay, PDE9A2. The method, boiled down: (§1)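 Enzyme activity is measured as conversion of fluorescent cGMP (4.0 μM) to 5′-GMP after 1 h at R.T. in pH 7.5 HEPES/MgCl2/DTT buffer. Product is separated from substrate by microfluidic mobility shift, and inhibition is derived by comparison with control wells.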

In test [2] the target is T2, PDE1A (Homo sapiens, UniProt P54750).
T2 construct: purchased Reaction Biology Corporation, Malvern, Pa
The test can be described thus: Phosphodiesterase enzyme screening assay, PDE1A. The method, boiled down:
as §1

The target of test [3] is T3, PDE1B (Homo sapiens, UniProt Q01064).
T3 construct: purchased Reaction Biology Corporation, Malvern, Pa
Put plainly: Phosphodiesterase enzyme screening assay, PDE1B. The essentials: as §1

Where [4] appears, read: IC50 band, 4.0 μM cGMP substrate, 1 hour at R.T.
Where [5] appears, read: ratio of IC50 values PDE1A vs PDE9A2, value greater than 1 indicates greater selectivity for PDE9A2.
[6] abbreviates: ratio of IC50 values PDE1B vs PDE9A2, value greater than 1 indicates greater selectivity for PDE9A2.
[7] abbreviates: Table 1, ratio of IC50 values, value greater than 1 indicates greater selectivity for PDE9A2.
The mark [8] stands for this setting: ratio of IC50 values, value greater than 1 indicates greater selectivity for PDE9A2.

Read-outs that look alike come from different tables or passages of the source.

As a reminder, the IC50 is the concentration that inhibits the measured activity by half.

T2 sequence (P54750 whole entry): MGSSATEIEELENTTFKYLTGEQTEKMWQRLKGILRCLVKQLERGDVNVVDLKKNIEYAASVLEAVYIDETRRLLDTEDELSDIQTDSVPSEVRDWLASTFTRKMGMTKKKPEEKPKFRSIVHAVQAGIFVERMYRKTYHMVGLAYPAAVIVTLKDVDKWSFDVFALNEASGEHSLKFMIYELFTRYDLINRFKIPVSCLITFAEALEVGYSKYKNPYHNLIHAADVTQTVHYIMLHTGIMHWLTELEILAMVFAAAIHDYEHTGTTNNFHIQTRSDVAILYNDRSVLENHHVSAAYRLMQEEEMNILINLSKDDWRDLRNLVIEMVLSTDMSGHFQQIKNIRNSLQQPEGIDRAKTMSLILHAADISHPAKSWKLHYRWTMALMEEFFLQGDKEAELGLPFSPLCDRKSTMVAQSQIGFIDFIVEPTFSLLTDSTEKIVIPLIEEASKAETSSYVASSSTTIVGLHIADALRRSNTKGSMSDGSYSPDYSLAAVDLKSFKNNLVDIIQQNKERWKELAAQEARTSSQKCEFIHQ
T3 sequence (Q01064 whole entry): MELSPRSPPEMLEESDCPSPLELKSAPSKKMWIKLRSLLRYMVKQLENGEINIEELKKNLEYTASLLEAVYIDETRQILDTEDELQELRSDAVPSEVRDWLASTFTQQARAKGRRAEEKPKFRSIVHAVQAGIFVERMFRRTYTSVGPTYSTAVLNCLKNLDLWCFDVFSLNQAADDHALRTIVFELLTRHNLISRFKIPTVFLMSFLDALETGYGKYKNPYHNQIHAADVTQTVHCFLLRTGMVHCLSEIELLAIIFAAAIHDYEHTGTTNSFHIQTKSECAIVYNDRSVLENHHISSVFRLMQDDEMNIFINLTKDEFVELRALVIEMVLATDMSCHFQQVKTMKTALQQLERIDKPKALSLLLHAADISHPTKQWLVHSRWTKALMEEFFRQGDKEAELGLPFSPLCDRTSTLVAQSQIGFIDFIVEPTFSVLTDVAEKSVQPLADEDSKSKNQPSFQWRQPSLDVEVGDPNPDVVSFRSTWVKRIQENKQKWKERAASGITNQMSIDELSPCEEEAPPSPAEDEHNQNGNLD
T1 sequence (O76083 1-533 isoform O76083-2): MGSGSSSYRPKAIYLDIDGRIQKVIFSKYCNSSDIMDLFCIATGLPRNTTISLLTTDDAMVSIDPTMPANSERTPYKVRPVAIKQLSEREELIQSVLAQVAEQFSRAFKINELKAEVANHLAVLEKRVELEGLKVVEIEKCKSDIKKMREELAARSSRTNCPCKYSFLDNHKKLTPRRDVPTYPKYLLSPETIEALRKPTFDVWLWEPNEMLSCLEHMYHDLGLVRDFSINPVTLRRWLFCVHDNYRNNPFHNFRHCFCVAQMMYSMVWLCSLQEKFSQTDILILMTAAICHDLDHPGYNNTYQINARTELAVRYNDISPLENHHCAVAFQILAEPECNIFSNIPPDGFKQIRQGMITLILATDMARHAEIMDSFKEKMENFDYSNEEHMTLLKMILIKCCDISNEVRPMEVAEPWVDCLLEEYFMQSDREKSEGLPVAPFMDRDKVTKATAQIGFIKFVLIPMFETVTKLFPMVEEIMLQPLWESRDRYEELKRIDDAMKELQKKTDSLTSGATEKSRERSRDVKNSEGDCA

The molecule `Cc1cc(F)ccc1-c1ncc2c(=O)[nH]c(C3CN(Cc4nc5ccccc5[nH]4)CC3C)nn12` (single isomer, unassigned; (+)) [(+)-2-((3,4-trans)-1-((1H-benzo[d]imidazol-2-yl)methyl)-4-methylpyrrolidin-3-yl)-7-(4-fluoro-2-methylphenyl)imidazo[5,1-f][1,2,4]triazin-4(3H)-one] showed an IC50 in test [1] (setting [4]) of under 1 µM. For the same molecule, the “PDE1A selectivity (versus PDE9A2)” value in test [2] (setting [5]) is given as 1438. Further, the “PDE1B selectivity (versus PDE9A2)” value in test [3] (setting [6]) is 2500.

`Cc1ccc(F)cc1-c1ncc2c(=O)[nH]c(C3CN(Cc4nc5ccccc5[nH]4)CC3C)nn12` (single isomer, unassigned; (+)) [(+)-2-((3,4-trans)-1-((1H-benzo[d]imidazol-2-yl)methyl)-4-methylpyrrolidin-3-yl)-7-(5-fluoro-2-methylphenyl)imidazo[5,1-f][1,2,4]triazin-4(3H)-one] returned an IC50 in test [1] (setting [4]) of under 1 µM. In addition, the “PDE1A selectivity (versus PDE9A2)” value in test [2] (setting [5]) came out at 89. Also, in test [3] (setting [6]), the “PDE1B selectivity (versus PDE9A2)” value is 130.

Turning to `Cc1ccccc1-c1ncc2c(=O)[nH]c(C3CN(Cc4nc5ccccc5[nH]4)CC3C)nn12` (single isomer, unassigned; (+)) [(+)-2-((3,4-trans)-1-((1H-benzo[d]imidazol-2-yl)methyl)-4-methylpyrrolidin-3-yl)-7-(o-tolyl)imidazo[5,1-f][1,2,4]triazin-4(3H)-one], the IC50 in test [1] (read-out: Band (PDE9A2 IC50)) is under 1 µM. Moreover, the “PDE1A selectivity (versus PDE9A2)” value in test [2] (ratio of IC50 values, PDE1A versus PDE9A2, value greater than 1 indicates greater selectivity for PDE9A2) turned out to be 1740. Besides, the “PDE1B selectivity (versus PDE9A2)” value in test [3] (ratio of IC50 values, PDE1B versus PDE9A2, value greater than 1 indicates greater selectivity for PDE9A2) was 2990.

With `CCc1ncc(CN2CC(C)C(c3nn4c(C5CCOCC5)ncc4c(=O)[nH]3)C2)cn1` (single isomer, unassigned; (+)) [(+)-2-((3,4-trans)-1-((2-ethylpyrimidin-5-yl)methyl)-4-methylpyrrolidin-3-yl)-7-(tetrahydro-2H-pyran-4-yl)imidazo[5,1-f][1,2,4]triazin-4(3H)-one], the IC50 in test [1] (Table 1, 10 concentrations, 4.0 μM cGMP substrate, 1 hour at R.T., read-out: Band (PDE9A2 IC50)) is under 1 µM. For the same molecule, the “PDE1A selectivity (versus PDE9A2)” value in test [2] (setting [7]) turned out to be 855. Also, in test [3] (setting [7]), the “PDE1B selectivity (versus PDE9A2)” value is on record as 1920.

As for `COc1cc(CN2CC(C)C(c3nn4c(C5CCOCC5)ncc4c(=O)[nH]3)C2)ccn1` (single isomer, unassigned; (+)) [(+)-2-((3,4-trans)-1-((2-methoxypyridin-4-yl)methyl)-4-methylpyrrolidin-3-yl)-7-(tetrahydro-2H-pyran-4-yl)imidazo[5,1-f][1,2,4]triazin-4(3H)-one], the IC50 in test [1] (Table 3, 4.0 μM cGMP substrate, 1 hour at R.T., read-out: Band (PDE9A2 IC50)) was under 1 µM. In addition, in test [2] (ratio of IC50 values, PDE1A versus PDE9A2, value greater than 1 = greater selectivity for PDE9A2), the “PDE1A selectivity (versus PDE9A2)” value is given as 317. For the same molecule, the “PDE1B selectivity (versus PDE9A2)” value in test [3] (ratio of IC50 values, PDE1B versus PDE9A2, value greater than 1 = greater selectivity for PDE9A2) came to 607.

As for `COc1ncc(CN2CC(C)C(c3nn4c(C5CCOCC5)ncc4c(=O)[nH]3)C2)cn1` (single isomer, unassigned; (+)) [(+)-2-((3,4-trans)-1-((2-methoxypyrimidin-5-yl)methyl)-4-methylpyrrolidin-3-yl)-7-(tetrahydro-2H-pyran-4-yl)imidazo[5,1-f][1,2,4]triazin-4(3H)-one], the IC50 in test [1] (4.0 μM cGMP substrate, 1 hour at R.T., read-out: Band (PDE9A2 IC50)) was under 1 µM. The “PDE1A selectivity (versus PDE9A2)” value in test [2] (ratio of IC50 values PDE1A / PDE9A2, value greater than 1 = greater selectivity for PDE9A2) is reported as 1210. Further, the “PDE1B selectivity (versus PDE9A2)” value in test [3] (ratio of IC50 values PDE1B / PDE9A2, value greater than 1 = greater selectivity for PDE9A2) is reported as 3650.

Take `CC1CN(CC2CCC(F)(F)CC2)CC1c1nn2c(C3CCOCC3)ncc2c(=O)[nH]1` (single isomer, unassigned; (+)) [(+)-2-((3,4-trans)-1-((4,4-difluorocyclohexyl)methyl)-4-methylpyrrolidin-3-yl)-7-(tetrahydro-2H-pyran-4-yl)imidazo[5,1-f][1,2,4]triazin-4(3H)-one]: the IC50 in test [1] (read-out: Band (PDE9A2 IC50)) is under 1 µM. Moreover, in test [2] (setting [8]), the “PDE1A selectivity (versus PDE9A2)” value was 51. In addition, the “PDE1B selectivity (versus PDE9A2)” value in test [3] (setting [8]) came to 68.
